Results taken from patent US20100035866A1, “NOVEL SUBSTITUTED-1, 1-DIOXO-BENZO[1,2,4]THIADIAZIN-3ONES, PREPARATION METHOD THEREOF, AND PHARMACEUTICAL COMPOSITION CONTAINING THE SAME” (KOREA RESEARCH INSTITUTE OF CHEMICAL TECHNOLOGY, priority 2006, published 2010).

Columns and labels:
[1] = target: Human serotonin 5-HT6 receptor (Homo sapiens, UniProt P50406); test: [3H]LSD binding assay on cloned 5-HT6 receptor; conditions: IC50 (nM), binding affinity to the 5-HT6 receptor, Table 2; 1.87 nM [3H]LSD, cloned human receptor membranes from Sf21 cells, 37° C. 60 min
Sequence of Human serotonin 5-HT6 receptor (P50406 whole entry): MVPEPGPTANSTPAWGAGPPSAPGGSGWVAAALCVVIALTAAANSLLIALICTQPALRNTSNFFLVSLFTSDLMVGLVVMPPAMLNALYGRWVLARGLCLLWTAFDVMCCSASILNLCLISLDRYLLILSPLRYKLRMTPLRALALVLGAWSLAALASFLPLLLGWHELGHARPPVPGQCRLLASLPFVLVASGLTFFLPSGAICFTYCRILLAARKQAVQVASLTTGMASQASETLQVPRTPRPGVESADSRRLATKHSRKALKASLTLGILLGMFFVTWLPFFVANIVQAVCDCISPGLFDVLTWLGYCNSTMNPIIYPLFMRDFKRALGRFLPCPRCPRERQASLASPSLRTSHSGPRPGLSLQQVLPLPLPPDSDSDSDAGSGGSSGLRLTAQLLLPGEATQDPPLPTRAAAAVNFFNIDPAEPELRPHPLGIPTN

IC50 [1] [nM]	melting point [°C]	SMILES
4.6	158 to 161	CCN1C(=O)N(Cc2ccccc2)c2cc(Cl)cc(N3CCNCC3)c2S1(=O)=O [Example 64, 4-Benzyl-6-chloro-2-ethyl-1,1-dioxo-8-piperazin-1-yl-1,4-dihydro-2H-1λ^6-benzo[1,2,4]thiadiazin-3-one]
1.9	116 to 118	CCCCN1C(=O)N(Cc2ccccc2)c2cc(Cl)cc(N3CCN(C)CC3)c2S1(=O)=O [Example 35, 4-Benzyl-2-butyl-6-chloro-8-(4-methyl-piperazin-1-yl)-1,1-dioxo-1,4-dihydro-2H-1λ^6-benzo[1,2,4]thiadiazin-3-one]
6.9	164 to 166	O=C1N(Cc2ccccc2)c2cc(Cl)cc(N3CCNCC3)c2S(=O)(=O)N1Cc1cccc2ccccc12 [Example 68, 4-Benzyl-6-chloro-2-naphthalen-1-ylmethyl-1,1-dioxo-8-piperazin-1-yl-1,4-dihydro-2H-1λ^6-benzo[1,2,4]thiadiazin-3-one]
147	134 to 136	C[C@@H]1CN(c2cc(Cl)cc3c2S(=O)(=O)N(Cc2ccccc2Cl)C(=O)N3Cc2ccccc2)CCN1 [Example 71, 4-Benzyl-6-chloro-2-(2-chloro-benzyl)-8-[(R)-3-methyl-piperazin-1-yl]-1,1-dioxo-1,4-dihydro-2H-1λ^6-benzo[1,2,4]thiadiazin-3-one]
6.9	151 to 152	CN1CCN(c2cc(Cl)cc3c2S(=O)(=O)N(CCc2ccccc2)C(=O)N3Cc2ccccc2)CC1 [Example 37, 4-Benzyl-6-chloro-8-(4-methyl-piperazin-1-yl)-1,1-dioxo-2-phenethyl-1,4-dihydro-2H-1λ^6-benzo[1,2,4]thiadiazin-3-one]
> 1000	159 to 161	O=C1N(Cc2ccccc2)c2cc(Cl)cc(N3CCN(c4ccccn4)CC3)c2S(=O)(=O)N1Cc1ccccc1Cl [Example 70, 4-Benzyl-6-chloro-2-(2-chloro-benzyl)-1,1-dioxo-8-(4-pyridin-2-yl-piperazin-1-yl)-1,4-dihydro-2H-1λ^6-benzo[1,2,4]thiadiazin-3-one]
1.7	191 to 193	COc1cccc(N2C(=O)N(Cc3ccccc3)c3cc(Cl)cc(N4CCN(C)CC4)c3S2(=O)=O)c1 [Example 29, 4-Benzyl-6-chloro-2-(3-methoxy-phenyl)-8-(4-methyl-piperazin-1-yl)-1,1-dioxo-1,4-dihydro-2H-1λ^6-benzo[1,2,4]thiadiazin-3-one]
11.6	188 to 191	Cc1cccc(CN2C(=O)N(Cc3ccccc3)c3cc(Cl)cc(N4CCN(C)CC4)c3S2(=O)=O)c1 [Example 14, 4-Benzyl-6-chloro-2-(3-methyl-benzyl)-8-(4-methyl-piperazin-1-yl)-1,1-dioxo-1,4-dihydro-2H-1λ^6-benzo[1,2,4]thiadiazin-3-one]
2.2	96 to 98	CN1CCN(c2cc(Cl)cc3c2S(=O)(=O)N(Cc2cccc(Br)c2)C(=O)N3Cc2ccccc2)CC1 [Example 9, 4-Benzyl-2-(3-bromo-benzyl)-6-chloro-8-(4-methyl-piperazin-1-yl)-1,1-dioxo-1,4-dihydro-2H-1λ^6-benzo[1,2,4]thiadiazin-3-one]
8.4	136 to 139	COC(=O)c1ccc(CN2C(=O)N(Cc3ccccc3)c3cc(Cl)cc(N4CCNCC4)c3S2(=O)=O)cc1 [Example 56, 4-(4-Benzyl-6-chloro-1,1,3-trioxo-8-piperazin-1-yl-3,4-dihydro-1H-1λ^6-benzo[1,2,4]thiadiazin-2-ylmethyl)-benzoic acid methyl ester]
1.4	110 to 111	CN1CCN(c2cc(Cl)cc3c2S(=O)(=O)N(Cc2ccc(I)cc2)C(=O)N3Cc2ccccc2)CC1 [Example 12, 4-Benzyl-6-chloro-2-(4-iodo-benzyl)-8-(4-methyl-piperazin-1-yl)-1,1-dioxo-1,4-dihydro-2H-1λ^6-benzo[1,2,4]thiadiazin-3-one]
396	157 to 159	O=C1N(Cc2ccccc2)c2cc(Cl)cc(N3CCN4CCCC[C@@H]4C3)c2S(=O)(=O)N1Cc1ccccc1Cl [Example 75, 4-Benzyl-6-chloro-2-(2-chloro-benzyl)-8-[(6R)-1,4-diazabicyclo[4.4.0]dec-4-yl]-1,1-dioxo-1,4-dihydro-2H-1λ^6-benzo[1,2,4]thiadiazin-3-one]
5.4	180 to 185	Cc1ccc(CN2C(=O)N(Cc3ccccc3)c3cc(Cl)cc(N4CCN(C)CC4)c3S2(=O)=O)cc1 [Example 15, 4-Benzyl-6-chloro-2-(4-methyl-benzyl)-8-(4-methyl-piperazin-1-yl)-1,1-dioxo-1,4-dihydro-2H-1λ^6-benzo[1,2,4]thiadiazin-3-one]
7.1	119 to 120	COc1ccccc1N1C(=O)N(Cc2ccccc2)c2cc(Cl)cc(N3CCN(C)CC3)c2S1(=O)=O [Example 28, 4-Benzyl-6-chloro-2-(2-methoxy-phenyl)-8-(4-methyl-piperazin-1-yl)-1,1-dioxo-1,4-dihydro-2H-1λ^6-benzo[1,2,4]thiadiazin-3-one]
5.2	115 to 116	COc1ccc(N2C(=O)N(Cc3ccccc3)c3cc(Cl)cc(N4CCN(C)CC4)c3S2(=O)=O)cc1 [Example 30, 4-Benzyl-6-chloro-2-(4-methoxy-phenyl)-8-(4-methyl-piperazin-1-yl)-1,1-dioxo-1,4-dihydro-2H-1λ^6-benzo[1,2,4]thiadiazin-3-one]
1.6	148 to 150	Cc1ccccc1CN1C(=O)N(Cc2ccccc2)c2cc(Cl)cc(N3CCN(C)CC3)c2S1(=O)=O [Example 13, 4-Benzyl-6-chloro-2-(2-methyl-benzyl)-8-(4-methyl-piperazin-1-yl)-1,1-dioxo-1,4-dihydro-2H-1λ^6-benzo[1,2,4]thiadiazin-3-one]
7.7	107 to 108	CN1CCN(c2cc(Cl)cc3c2S(=O)(=O)N(Cc2ccncc2)C(=O)N3Cc2ccccc2)CC1 [Example 42, 4-Benzyl-6-chloro-8-(4-methyl-piperazin-1-yl)-1,1-dioxo-2-pyridin-4-ylmethyl-1,4-dihydro-2H-1λ^6-benzo[1,2,4]thiadiazin-3-one]
6.4	134 to 135	CN1CCN(c2cc(Cl)cc3c2S(=O)(=O)N(Cc2ccc(C#N)cc2)C(=O)N3Cc2ccccc2)CC1 [Example 24, 4-[4-Benzyl-6-chloro-8-(4-methyl-piperazin-1-yl)-1,1,3-trioxo-3,4-dihydro-2H-1λ^6-benzo[1,2,4]thiadiazin-2-ylmethyl]-benzonitrile]
12.3	84 to 86	CN1CCN(c2cc(Cl)cc3c2S(=O)(=O)N(Cc2ccccc2[N+](=O)[O-])C(=O)N3Cc2ccccc2)CC1 [Example 20, 4-Benzyl-6-chloro-8-(4-methyl-piperazin-1-yl)-2-(2-nitro-benzyl)-1,1-dioxo-1,4-dihydro-2H-1λ^6-benzo[1,2,4]thiadiazin-3-one]
28.8	140 to 143	COC(=O)c1ccc(CN2C(=O)N(Cc3ccccc3)c3cc(Cl)cc(N4CCN(C)CC4)c3S2(=O)=O)cc1 [Example 23, 4-[4-Benzyl-6-chloro-8-(4-methyl-piperazin-1-yl)-1,1,3-trioxo-3,4-dihydro-1H-1λ^6-benzo[1,2,4]thiadiazin-2-ylmethyl]-benzoic acid methyl ester]
4.4	96 to 98	CN1CCN(c2cc(Cl)cc3c2S(=O)(=O)N(Cc2cccc(I)c2)C(=O)N3Cc2ccccc2)CC1 [Example 11, 4-Benzyl-6-chloro-2-(3-iodo-benzyl)-8-(4-methyl-piperazin-1-yl)-1,1-dioxo-1,4-dihydro-2H-1λ^6-benzo[1,2,4]thiadiazin-3-one]
5.4	112 to 113	CN1CCN(c2cc(Cl)cc3c2S(=O)(=O)N(Cc2ccc(F)cc2)C(=O)N3Cc2ccccc2)CC1 [Example 4, 4-Benzyl-6-chloro-2-(4-fluoro-benzyl)-8-(4-methyl-piperazin-1-yl)-1,1-dioxo-1,4-dihydro-2H-1λ^6-benzo[1,2,4]thiadiazin-3-one]
